Key:
barnyard grass [1] = assay: Test Example 4: herbicidal effect by soil treatment (Table 19, symbol H); format: in vivo, barnyard grass (Echinochloa crus-galli); settings: amount of applied herbicide 320 g/ha
How it was run: (§1)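 Emulsion of test compound, water-diluted to predetermined amount, sprayed on soil after sowing (seed depth ~1.5 cm, sterilized diluvial soil). Greenhouse, 25–30° C. Effect graded at three weeks post-spray.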

redroot pigweed [2] = assay: Test Example 4: herbicidal effect by soil treatment (Table 19, symbol N); format: in vivo, redroot pigweed (Amaranthus retroflexus); settings: amount of applied herbicide 320 g/ha
How it was run: as §1

blackgrass [3] = assay: Test Example 4: herbicidal effect by soil treatment (Table 19, symbol J); format: in vivo, blackgrass (Alopecurus myosuroides); settings: amount of applied herbicide 320 g/ha
How it was run: as §1

redroot pigweed [4] = assay: Test Example 5: herbicidal effect by foliage application, plastic box (Table 20, symbol N); format: in vivo, redroot pigweed (Amaranthus retroflexus); settings: foliage application, AAH 320 g/ha, evaluated three weeks after application
How it was run: (§2)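 Post-emergence foliar test in sterilized diluvial soil. Compound applied as water-diluted emulsion at a predetermined rate to 14-day-old plants; evaluation at three weeks.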

Chinese sprangletop = assay: Test Example 3: herbicidal effect by foliage application, Wagner pot (Table 18, symbol D); format: in vivo, chinese sprangletop (Leptochloa chinensis); settings: amount of applied herbicide 320 g/ha
How it was run: (§3)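 Plants were sown in alluvial soil held under 0.1–0.5 cm standing water and grown 14 days in a greenhouse at 25–30 °C. An emulsifiable formulation, water-diluted to the set dose, was then sprayed onto the foliage, and effects were scored three weeks later using previously defined criteria.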

barnyard grass [5] = assay: Test Example 5: herbicidal effect by foliage application, plastic box (Table 20, symbol H); format: in vivo, barnyard grass (Echinochloa crus-galli); settings: foliage application, AAH 320 g/ha, evaluated three weeks after application
How it was run: as §2

Italian ryegrass = assay: Test Example 5: herbicidal effect by foliage application, plastic box (Table 20, symbol K); format: in vivo, Italian ryegrass (Lolium multiflorum); settings: foliage application, AAH 320 g/ha, evaluated three weeks after application
How it was run: as §2

southern crabgrass = assay: Test Example 4: herbicidal effect by soil treatment (Table 19, symbol F); format: in vivo, southern crabgrass (Digitaria ciliaris); settings: amount of applied herbicide 320 g/ha
How it was run: as §1

velvetleaf = assay: Test Example 5: herbicidal effect by foliage application, plastic box (Table 20, symbol M); format: in vivo, velvetleaf (Abutilon theophrasti); settings: foliage application, AAH 320 g/ha, evaluated three weeks after application
How it was run: as §2

blackgrass [6] = assay: Test Example 5: herbicidal effect by foliage application, plastic box (Table 20, symbol J); format: in vivo, blackgrass (Alopecurus myosuroides); settings: foliage application, AAH 320 g/ha, evaluated three weeks after application
How it was run: as §2

barnyard grass [7] = assay: Test Example 3: herbicidal effect by foliage application, Wagner pot (Table 18, symbol H); format: in vivo, barnyard grass (Echinochloa crus-galli); settings: amount of applied herbicide 320 g/ha
How it was run: as §3

persian speedwell = assay: Test Example 5: herbicidal effect by foliage application, plastic box (Table 20, symbol R); format: in vivo, Persian speedwell (Veronica persica); settings: foliage application, AAH 320 g/ha, evaluated three weeks after application
How it was run: as §2

late watergrass = assay: Test Example 2: herbicidal activity, application during weed generation under submerged conditions (Table 17, symbol A); format: in vivo, late watergrass (Echinochloa oryzicola); settings: AAH 320 g/ha; application during weed generation, submerged conditions
How it was run: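 In this pot test, flooded alluvial soil (water depth 4 cm) holds all three species sown as a mixture. Once seedlings have one to two leaves, the compound's emulsion, thinned with water to the intended dose, is poured on the water; grading follows after three weeks on the earlier criteria.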

lambsquarters = assay: Test Example 4: herbicidal effect by soil treatment (Table 19, symbol O); format: in vivo, lambsquarters (Chenopodium album); settings: amount of applied herbicide 320 g/ha
How it was run: as §1

wild oat = assay: Test Example 5: herbicidal effect by foliage application, plastic box (Table 20, symbol I); format: in vivo, wild oat (Avena fatua); settings: foliage application, AAH 320 g/ha, evaluated three weeks after application
How it was run: as §2

chickweed = assay: Test Example 4: herbicidal effect by soil treatment (Table 19, symbol P); format: in vivo, common chickweed (Stellaria media); settings: amount of applied herbicide 320 g/ha
How it was run: as §1

Compound	herbicidal effect on H: barnyard grass (barnyard grass [1])	herbicidal effect on N: redroot pigweed (redroot pigweed [2])	herbicidal effect on J: blackgrass (blackgrass [3])	N: redroot pigweed, herbicidal effect (criteria 0-5) (redroot pigweed [4])	herbicidal effect on D: Chinese sprangletop (Chinese sprangletop)	H: barnyard grass, herbicidal effect (criteria 0-5) (barnyard grass [5])	K: Italian ryegrass, herbicidal effect (criteria 0-5) (Italian ryegrass)	herbicidal effect on F: southern crabgrass (southern crabgrass)	M: velvetleaf, herbicidal effect (criteria 0-5) (velvetleaf)	J: blackgrass, herbicidal effect (criteria 0-5) (blackgrass [6])	herbicidal effect on H: barnyard grass (barnyard grass [7])	R: persian speedwell, herbicidal effect (criteria 0-5) (persian speedwell)	herbicidal effect rating, A: late watergrass (late watergrass)	herbicidal effect on O: lambsquarters (lambsquarters)	I: wild oat, herbicidal effect (criteria 0-5) (wild oat)	herbicidal effect on P: chickweed (chickweed)
CC(=O)c1ccc(-c2sc3ccc(F)cc3c2-c2c(O)c(C)nn(C)c2=O)cc1 [2-339]	0 (Herbicidal rate of 5% or less (almost no effect))	4 (Herbicidal rate of 70% or more and less than 90%)	2 (Herbicidal rate of 20% or more and less than 40%)	5 (Herbicidal rate of 90% or more (almost completely withered))	4 (Herbicidal rate of 70% or more and less than 90%)	3 (Herbicidal rate of 40% or more and less than 70%)	5 (Herbicidal rate of 90% or more (almost completely withered))	0 (Herbicidal rate of 5% or less (almost no effect))	5 (Herbicidal rate of 90% or more (almost completely withered))	1 (Herbicidal rate of 5% or more and less than 20%)	5 (Herbicidal rate of 90% or more (almost completely withered))	5 (Herbicidal rate of 90% or more (almost completely withered))	3 (Herbicidal rate of 40% or more and less than 70%)	4 (Herbicidal rate of 70% or more and less than 90%)	3 (Herbicidal rate of 40% or more and less than 70%)	3 (Herbicidal rate of 40% or more and less than 70%)
Cc1nn(C)c(=O)c(-c2c(-c3ccc([N+](=O)[O-])cc3)sc3ccc(F)cc23)c1O [2-341]	3 (Herbicidal rate of 40% or more and less than 70%)	5 (Herbicidal rate of 90% or more (almost completely withered))	0 (Herbicidal rate of 5% or less (almost no effect))	5 (Herbicidal rate of 90% or more (almost completely withered))	3 (Herbicidal rate of 40% or more and less than 70%)	4 (Herbicidal rate of 70% or more and less than 90%)	5 (Herbicidal rate of 90% or more (almost completely withered))	5 (Herbicidal rate of 90% or more (almost completely withered))	5 (Herbicidal rate of 90% or more (almost completely withered))	4 (Herbicidal rate of 70% or more and less than 90%)	4 (Herbicidal rate of 70% or more and less than 90%)	5 (Herbicidal rate of 90% or more (almost completely withered))	3 (Herbicidal rate of 40% or more and less than 70%)	4 (Herbicidal rate of 70% or more and less than 90%)	4 (Herbicidal rate of 70% or more and less than 90%)	4 (Herbicidal rate of 70% or more and less than 90%)
